Results on 22 molecules are retold here after patent US12528812B2 (Genentech, Inc., priority 2020, dated 2026).

Assay [1] has as its target T1, recombinant human JAK1 kinase domain protein (Residues 854-1154) (Homo sapiens, UniProt P23458).
T1 construct: human JAK1 kinase domain protein (Residues 854-1154); purchased Proteros Biostructures GmbH (Martinsried, Germany); host or cells: insect cells
As to the kind of experiment: JAK1 biochemical assay (LabChip mobility shift, Ki). The following applies: read-out: Biochem JAK1 Ki.

Assay [2] deals with Recombinant human JAK2 kinase domain protein (Residues 812-1132) (Homo sapiens, UniProt O60674). As to the kind of experiment: JAK2 biochemical assay (LabChip mobility shift, Ki). The following applies: Biochem JAK2 Ki.
In assay [3] the test system is IL-13-stimulated STAT6 phosphorylation in human lung bronchial epithelial BEAS-2B cell line. As to the kind of experiment: P-STAT6 BEAS-2B + IL-13 cell assay. Particulars: Homo sapiens, BEAS-2B, BEAS2B cells, IL13 stimulation; read-out: Cellular JAK1 PSTAT6 BEAS2B + IL13. It is filed as cell-based. Put shortly: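 BEAS-2B cells grown 48 h at 37 °C, pre-treated 1 h with compound (10-point 1:2 dilution curve), then stimulated 15 min with human recombinant IL-13 (250 ng/mL stock). Lysate P-STAT6 (Tyr641) read by MSD sandwich ELISA with total-STAT6 capture; IC50 from four-parameter logistic fit of control-normalised data.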

SMILES strings stand for the structures.

T1 sequence (P23458 854-1154): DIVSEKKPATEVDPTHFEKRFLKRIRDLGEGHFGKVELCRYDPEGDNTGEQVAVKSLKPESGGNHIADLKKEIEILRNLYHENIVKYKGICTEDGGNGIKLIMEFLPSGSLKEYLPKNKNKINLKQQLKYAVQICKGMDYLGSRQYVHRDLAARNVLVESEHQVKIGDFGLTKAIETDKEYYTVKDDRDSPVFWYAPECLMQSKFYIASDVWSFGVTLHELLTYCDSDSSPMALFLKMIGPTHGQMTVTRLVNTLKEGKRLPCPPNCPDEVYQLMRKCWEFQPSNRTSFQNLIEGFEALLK
Chain of Recombinant human JAK2 kinase domain protein (Residues 812-1132) (O60674 812-1132): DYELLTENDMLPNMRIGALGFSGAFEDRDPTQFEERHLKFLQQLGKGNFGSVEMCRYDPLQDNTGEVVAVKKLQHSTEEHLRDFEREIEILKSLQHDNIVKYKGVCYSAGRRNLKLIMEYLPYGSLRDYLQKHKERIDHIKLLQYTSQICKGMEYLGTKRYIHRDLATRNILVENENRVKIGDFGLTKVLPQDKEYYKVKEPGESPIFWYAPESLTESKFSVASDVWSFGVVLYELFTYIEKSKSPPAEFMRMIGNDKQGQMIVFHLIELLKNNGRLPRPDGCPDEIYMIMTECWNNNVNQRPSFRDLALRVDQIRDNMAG

Regarding `COCCNCc1cccc(Oc2ccc(OC(F)F)c(-c3nn(C)cc3NC(=O)c3cnn4cccnc34)c2)c1` [Example 27, N-[3-[2-(difluoromethoxy)-5-[3-[(2-methoxyethylamino)methyl]phenoxy]phenyl]-1-methyl-pyrazol-4-yl]pyrazolo[1,5-a]pyrimidine-3-carboxamide], the Ki in assay [1] turned out to be 0.73 nM; in assay [2] it was 0.55 nM. In addition, the IC50 in assay [3] turned out to be 20 nM.
For `Cn1cc(NC(=O)c2cnn3cccnc23)c(-c2cc(Oc3cc(CN)ccc3F)ccc2OC(F)F)n1` [Example 28, N-[3-[5-[5-(aminomethyl)-2-fluoro-phenoxy]-2-(difluoromethoxy)phenyl]-1-methyl-pyrazol-4-yl]pyrazolo[1,5-a]pyrimidine-3-carboxamide], in that order: 0.19 nM, 0.21 nM and 19 nM.
For the molecule `Cn1cc(NC(=O)c2cnn3cccnc23)c(-c2cc(Oc3cccc(CNC4COC4)c3)ccc2OC(F)F)n1` [Example 29, N-[3-[2-(difluoromethoxy)-5-[3-[(oxetan-3-ylamino)methyl]phenoxy]phenyl]-1-methyl-pyrazol-4-yl]pyrazolo[1,5-a]pyrimidine-3-carboxamide], the Ki in assay [1] came to 1.2 nM; in assay [2] it was 0.72 nM. The IC50 in assay [3] came out at 62 nM.
Consider `CN1CCOC(c2cccc(Oc3ccc(OC(F)F)c(-c4nn(C)cc4NC(=O)c4cnn5cccnc45)c3)c2)C1` (stereo not drawn) [Example 30, N-[3-[2-(difluoromethoxy)-5-[3-(4-methylmorpholin-2-yl)phenoxy]phenyl]-1-methyl-pyrazol-4-yl]pyrazolo[1,5-a]pyrimidine-3-carboxamide], for which the Ki in assay [1] amounted to 0.93 nM; in assay [2], 0.56 nM. Moreover, in assay [3], the IC50 worked out at 40 nM.
With `CN1CCc2ccc(Oc3ccc(OC(F)F)c(-c4n[nH]cc4NC(=O)c4cnn5cccnc45)c3)cc2C1` [Example 36, N-[3-[2-(difluoromethoxy)-5-[(2-methyl-3,4-dihydro-1H-isoquinolin-7-yl)oxy]phenyl]-1H-pyrazol-4-yl]pyrazolo[1,5-a]pyrimidine-3-carboxamide], the results for the Ki in assay [1] and in assay [2] were 0.51 nM and 0.25 nM, respectively. In addition, the IC50 in assay [3] was found to be 11 nM.
For `Cn1cc(NC(=O)c2cnn3cccnc23)c(-c2cc(Oc3cccc(CN)n3)ccc2OC(F)F)n1` [Example 39, N-[3-[5-[[6-(aminomethyl)-2-pyridyl]oxy]-2-(difluoromethoxy)phenyl]-1-methyl-pyrazol-4-yl]pyrazolo[1,5-a]pyrimidine-3-carboxamide], in that order: 1.5 nM, 1.3 nM and 35 nM.
For `Cn1cc(NC(=O)c2cnn3cccnc23)c(-c2cc(Oc3ccnc(CN)c3)ccc2OC(F)F)n1` [Example 40, N-[3-[5-[[2-(aminomethyl)-4-pyridyl]oxy]-2-(difluoromethoxy)phenyl]-1-methyl-pyrazol-4-yl]pyrazolo[1,5-a]pyrimidine-3-carboxamide], the Ki amounted to 0.97 nM in assay [1] and 0.77 nM in assay [2]. For the same molecule, the IC50 in assay [3] stood at 51 nM.
Consider `O=C(Nc1cn(CCN[C@H]2C[C@H](O)C2)nc1-c1cc(Oc2ccccc2)ccc1OC(F)F)c1cnn2cccnc12` [Example 43, N-[3-[2-(difluoromethoxy)-5-phenoxy-phenyl]-1-[2-[(3-hydroxycyclobutyl)amino]ethyl]pyrazol-4-yl]pyrazolo[1,5-a]pyrimidine-3-carboxamide], for which the Ki in assay [1] amounted to 0.3 nM; in assay [2], 0.31 nM. In addition, the IC50 in assay [3] came out at 24 nM.
With `CC(=O)c1cc(Oc2ccc(OC(F)F)c(-c3n[nH]cc3NC(=O)c3cnn4cccnc34)c2)ccc1C` [Example 44, N-[3-[5-(3-acetyl-4-methyl-phenoxy)-2-(difluoromethoxy)phenyl]-1H-pyrazol-4-yl]pyrazolo[1,5-a]pyrimidine-3-carboxamide], the figures for the Ki in assay [1] and in assay [2] were 0.45 nM and 0.24 nM, respectively. For the same molecule, the IC50 in assay [3] was determined as 5.7 nM.
In the case of `Cn1cc(NC(=O)c2cnn3cccnc23)c(-c2cc(Oc3cccc(CN(CCO)CCO)c3)ccc2OC(F)F)n1` [Example 45, N-[3-[5-[3-[[bis(2-hydroxyethyl)amino]methyl]phenoxy]-2-(difluoromethoxy)phenyl]-1-methyl-pyrazol-4-yl]pyrazolo[1,5-a]pyrimidine-3-carboxamide], the Ki in assay [1] was 0.58 nM; in assay [2], 0.5 nM. For the same molecule, the IC50 in assay [3] came out at 34 nM.
For `Cn1cc(NC(=O)c2cnn3cccnc23)c(-c2cc(Oc3cccc(CN4CCOCC4)c3)ccc2OC(F)F)n1` [Example 46, N-[3-[2-(difluoromethoxy)-5-[3-(morpholinomethyl)phenoxy]phenyl]-1-methyl-pyrazol-4-yl]pyrazolo[1,5-a]pyrimidine-3-carboxamide] the same measures were 1.5 nM, 1.6 nM and 67 nM.
Regarding `Cn1cc(NC(=O)c2cnn3cccnc23)c(-c2cc(Oc3cccc(CNCCN4CCOCC4)c3)ccc2OC(F)F)n1` [Example 47, N-[3-[2-(difluoromethoxy)-5-[3-[(2-morpholinoethylamino)methyl]phenoxy]phenyl]-1-methyl-pyrazol-4-yl]pyrazolo[1,5-a]pyrimidine-3-carboxamide], the values for the Ki in assay [1] and in assay [2] were 2 nM and 1.6 nM, respectively. For the same molecule, in assay [3], the IC50 amounted to 24 nM.
In the case of `Cn1cc(NC(=O)c2cnn3cccnc23)c(-c2cc(Oc3cccc(CNC(CO)CO)c3)ccc2OC(F)F)n1` [Example 48, N-[3-[2-(difluoromethoxy)-5-[3-[[[2-hydroxy-1-(hydroxymethyl)ethyl]amino]methyl]phenoxy]phenyl]-1-methyl-pyrazol-4-yl]pyrazolo[1,5-a]pyrimidine-3-carboxamide], the figures for the Ki in assay [1] and in assay [2] were 0.76 nM and 0.64 nM, respectively. In addition, in assay [3], the IC50 was determined as 86 nM.
With `Cc1ccc(Oc2ccc(OC(F)F)c(-c3nn(C)cc3NC(=O)c3cnn4cccnc34)c2)cc1C(=O)N1CCN(C)CC1` [Example 50, N-[3-[2-(difluoromethoxy)-5-[4-methyl-3-(4-methylpiperazine-1-carbonyl)phenoxy]phenyl]-1-methyl-pyrazol-4-yl]pyrazolo[1,5-a]pyrimidine-3-carboxamide], the values for the Ki in assay [1] and in assay [2] were 0.64 nM and 0.46 nM, respectively. For the same molecule, in assay [3], the IC50 came out at 35 nM.
For `NCc1cc(Oc2ccc(OC(F)F)c(-c3n[nH]cc3NC(=O)c3cnn4cccnc34)c2)ccc1C(F)(F)F` [Example 52, N-[3-[5-[3-(aminomethyl)-4-(trifluoromethyl)phenoxy]-2-(difluoromethoxy)phenyl]-1H-pyrazol-4-yl]pyrazolo[1,5-a]pyrimidine-3-carboxamide] the same measures were 3 nM, 2.3 nM and 91 nM.
For `Cn1cc(NC(=O)c2cnn3cccnc23)c(-c2cc(Oc3cccc(C4(O)CNC4)c3)ccc2OC(F)F)n1` [Example 53], in that order: 0.32 nM, 0.27 nM and 210 nM.
Take `Cc1ccc(Oc2ccc(OC(F)F)c(-c3nn(C)cc3NC(=O)c3cnn4cccnc34)c2)cc1C(=O)N1CCNCC1` [Example 54, N-[3-[2-(difluoromethoxy)-5-[4-methyl-3-(piperazine-1-carbonyl)phenoxy]phenyl]-1-methyl-pyrazol-4-yl]pyrazolo[1,5-a]pyrimidine-3-carboxamide]: the values for the Ki in assay [1] and in assay [2] were 0.43 nM and 0.42 nM, respectively. The IC50 in assay [3] was 58 nM.
Take `CN(C)C(=O)CNCc1cccc(Oc2ccc(OC(F)F)c(-c3nn(C)cc3NC(=O)c3cnn4cccnc34)c2)c1` [Example 55, N-[3-[2-(difluoromethoxy)-5-[3-[[[2-(dimethylamino)-2-oxo-ethyl]amino]methyl]phenoxy]phenyl]-1-methyl-pyrazol-4-yl]pyrazolo[1,5-a]pyrimidine-3-carboxamide]: the Ki was found to be 0.9 nM in assay [1] and 0.58 nM in assay [2]. In assay [3], the IC50 is 48 nM.
For `O=C(Nc1cn(C2COC2)nc1-c1cc(Oc2ccccc2)ccc1OC(F)F)c1cnn2cccnc12` [Example 56, N-[3-[2-(difluoromethoxy)-5-phenoxy-phenyl]-1-(oxetan-3-yl)pyrazol-4-yl]pyrazolo[1,5-a]pyrimidine-3-carboxamide] the same measures were 0.35 nM, 0.25 nM and 15 nM.
On to `Cn1cc(NC(=O)c2cnn3cccnc23)c(-c2cc(Oc3cccc(-n4nccc4CN)c3)ccc2OC(F)F)n1` [Example 57, N-[3-[5-[3-[5-(aminomethyl)pyrazol-1-yl]phenoxy]-2-(difluoromethoxy)phenyl]-1-methyl-pyrazol-4-yl]pyrazolo[1,5-a]pyrimidine-3-carboxamide], for which the figures for the Ki in assay [1] and in assay [2] were 0.91 nM and 0.69 nM, respectively. Moreover, the IC50 in assay [3] stood at 37 nM.
For `CN(CC(=O)N(C)C)Cc1cccc(Oc2ccc(OC(F)F)c(-c3nn(C)cc3NC(=O)c3cnn4cccnc34)c2)c1` [Example 60] the same measures were 0.81 nM, 0.75 nM and 35 nM.
For the molecule `Cn1cc(NC(=O)c2cnn3cccnc23)c(-c2cc(Oc3ccc(CN4CCOCC4)cc3)ccc2OC(F)F)n1` [Example 61, N-[3-[2-(difluoromethoxy)-5-[4-(morpholinomethyl)phenoxy]phenyl]-1-methyl-pyrazol-4-yl]pyrazolo[1,5-a]pyrimidine-3-carboxamide], the Ki in assay [1] was 5.1 nM; in assay [2], 2.9 nM. Moreover, the IC50 in assay [3] was 130 nM.

In general, Ki refers to a measure of affinity in units of concentration, obtained from inhibition or displacement.
